According to patent US7723468B2, “Antimicrobial peptide, compositions, and uses therefor” (De Sao Paulo Universida de, priority 2000, dated 2010):
Bridges are numbered along the chain shown (N, C = ends).

Key:
Format in all cases: cell-based
[1] = tested on: Gram-positive and Gram-negative bacteria and yeast; experiment: Antimicrobial activity of head-to-tail cyclic gomesin, same growth inhibition assay (FIG. 3); conditions: tested Gram-positive and Gram-negative bacteria and yeast
Experimental: (§1) The evaluation of activity against bacteria and fungi was done as described in J. Biol. Chem., 271, 29537-29544 (1996).
On FIG. 1, n.d. means “non-detected” for the tested concentration range of up to 100 μM for gomesin, while n.m. means not measured. The minimal inhibitory concentrations (MICs) of synthetic peptides are expressed as the [A]-[B] interval of concentrations, where [A] is the highest concentration tested at which the microorganisms are growing and [B] is the lowest concentration that causes 100% growth inhibition.
The antimicrobial activity of the head-to-tail cyclic gomesin peptide (SEQ ID No 3) was evaluated using the same assay described above.

[2] = tested on: bacteria, fungi and yeast; experiment: Liquid growth inhibition assay, MIC activity spectrum (FIG. 1)
Experimental: The active fraction against the tested bacterium Micrococcus luteus of hemocytes (AGH2) is additionally purified by filtration chromatography. Elution is made under isocratic conditions with 30% acetonitrile in acidic water at a flow rate of 0.4 ml/min. HPLC (high performance liquid chromatography) purification was made at room temperature. The effluent column was monitored for its absorbance at 225 nm. Fractions corresponding to absorbance peaks were collected, concentrated under vacuum and reconstituted in MilliQ water. Anti-bacterial activity of the collected fractions was monitored by a liquid growth inhibition assay according to J. Biol. Chem., 268, 14893-14897 (1993), using Micrococcus luteus as the test microorganism.
as §1
On FIG. 1, n.d. means “non-detected” for the tested concentration range of up to 100 μM for gomesin, while n.m. means not measured. The minimal inhibitory concentrations (MICs) of synthetic peptides are expressed as the [A]-[B] interval of concentrations, where [A] is the highest concentration tested at which the microorganisms are growing and [B] is the lowest concentration that causes 100% growth inhibition. […]

[3] = tested on: Leishmania (leishmania) amazonensis (MRPO/BR/72/M 1841-LV-79); experiment: Anti-parasitic activity, MTT cell viability test (FIG. 4); conditions: incubation one hour at 22° C., 0.1 to 100 μM
Experimental: (§2) As an example of anti-parasitic activity, the cell viability of Leishmania (leishmania) amazonensis (MRPO/BR/72/M 1841-LV-79) and Trypanosoma cruzi were evaluated, by making use of the MTT [3-(4,5-dimethyltiazolyl-2)-2,5-diphenyl tetrazolio bromide] test as described in J. Immunol. Methods 65, 55-63 (1983) and adapted for Leishmania spp, according to J. Immunol. Methods 127, 11-18 (1990).
(§3) Quantities from 0.1 to 100 μM were tested against Leishmania (leishmania) amazonensis and Trypanosoma cruzi. […] The death of parasites (%) was measured by making use of the MTT assay as described in J. Immunol. Methods 65, 55-63 (1983) and adapted for Leishmania spp, according to J. Immunol. Methods 127, 11-18 (1990).

[4] = tested on: Trypanosoma cruzi; experiment: as above; conditions: incubation one hour at 22° C., 0.1 to 100 μM
Experimental: as §2, §3

| Substance | antimicrobial activity compared with native gomesin [1] | MIC (minimum inhibitory concentration) ([2]; for half of the 24 susceptible strains) | strains susceptible to gomesin ([2]; out of the 27 strains tested, concentration range up to 100 μM) | viability of parasites (death of parasites, %) [3] | viability of parasites (death of parasites, %) [4] |
| --- | --- | --- | --- | --- | --- |
| QCRRLCYKQRCVTYCRGR (cyclo(QCRRLCYKQRCVTYCRGR); disulfide 6-11, 2-15; SMILES CC(C)C[C@@H]1NC(=O)[C@H](CCCNC(=N)N)NC(=O)[C@H](CCCNC(=N)N)NC(=O)[C@@H]2CSSC[C@H](NC(=O)[C@H](Cc3ccc(O)cc3)NC(=O)[C@H]([C@@H](C)O)NC(=O)[C@H](C(C)C)NC(=O)[C@@H]3CSSC[C@H](NC1=O)C(=O)N[C@@H](Cc1ccc(O)cc1)C(=O)N[C@@H](CCCCN)C(=O)N[C@@H](CCC(N)=O)C(=O)N[C@@H](CCCNC(=N)N)C(=O)N3)C(=O)N[C@@H](CCCNC(=N)N)C(=O)NCC(=O)N[C@@H](CCCNC(=N)N)C(=O)N[C@@H](CCC(N)=O)C(=O)N2) [head-to-tail cyclic gomesin, gomesin with closed ends] | identical to the activity of native gomesin | – | – | – | – |
| ZCRRLCYKQRCVTYCRGRa [gomesin] | – | ≤ 1.6 µM | 24 strains | dependent on the concentration of gomesin | dependent on the concentration of gomesin |
